These results are taken from patent US10858367B2, “Compounds” (GLAXOSMITHKLINE INTELLECTUAL PROPERTY DEVELOPMENT LIMITED, priority 2017, dated 2020).

Where a name gives a salt, the structure may show the parent alone. Some results are limits rather than exact numbers.

Test [1] concerns the target T1, LRRK2 Ser935 phosphorylation in SH-SY5Y cells over-expressing recombinant full length LRRK2 (Homo sapiens, UniProt Q5S007).
T1 construct: A BacMam virus expressing full length recombinant LRRK2 was purchased from Invitrogen; host or cells: SH-SY5Y human neuroblastoma cells transduced with BacMam LRRK2 virus
The test is described as follows: Recombinant cellular LRRK2 AlphaScreen assay. Format: cell-based. Conditions: human neuroblastoma SH-SY5Y cells, BacMam full length LRRK2, 60 minutes with compound, read-out: pIC50 in the recombinant cellular LRRK2 AlphaScreen assay (converted). The method, boiled down: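 SH-SY5Y cells transduced with BacMam full-length human LRRK2 (MOI 50) for 24 h, then treated with compound (top final 10 μM) for 60 min at 37° C. Lysate pSer935 LRRK2 quantified by AlphaScreen using anti-pS935 and total-LRRK2 antibodies. Values from sigmoidal dose-response fit.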
For orientation: Alpha assays give light when donor and acceptor beads are brought close together.

Test [2] addresses T2, full length G2019 human LRRK2 (Homo sapiens, UniProt Q5S007, R50H).
T2 construct: made in house; host or cells: HEK293 6E cells transduced with BacMam virus (virus generated in Sf9 cells)
The test is described as follows: Full length G2019 human LRRK2 Inhibition Mass Spectrometry assay. Format: biochemical. Conditions: 25 nM LRRK2 enzyme, 25 uM LRRKtide, 2 mM ATP; RapidFire mass spectrometry; read-out: pIC50 in the full length G2019 human LRRK2 Inhibition Mass Spectrometry assay (converted). The source says: a. Full Length G2019 Human LRRK2 Inhibition Mass Spectrometry Assay
This assay for Leucine Rich Repeat Kinase 2 (LRRK2) inhibition is based on the direct measurement of the peptide ‘LRRKtide’ (LRRKtide: RLGRDKYKT*LRQIRQ and “*” refers to the site of phosphorylation.) and phosphorylated ‘LRRKtide’ using a high throughput RapidFire mass spectrometry assay. Inhibitors are compounds that reduce the conversion of LRRKtide to phospho-LRRKtide.
Human G2019 LRRK2 Plasmid Preparation
Primers used for PCR cloning: • pHTBV-F:SEQ ID No: 1 • LRRK2 wt-F1:SEQ ID No: 2 • LRRK2 wt-R1: SEQ ID No: 3 • LRRK2 wt-F2: SEQ ID No: 4 • LRRK2 wt-R2: SEQ ID No: 5 • LRRK2 wt-F3:SEQ ID No: 6 • pHTBV-R: SEQ ID No: 7 pHTBV1-N-Flag-hu LRRK2 was generated by PCR amplifying the full length LRRK2 sequence with N terminal Flag tag from pcDNA3.1(+)_Human_LRRK2 (NCBI Reference Sequence: NP_940980.3) with the primers described above, and cloned into pHTBV1mcs3 vector between BamHI and KpnI sites.
The G2019 full length Flag-LRRK2 coding sequence is SEQ ID No: 8.
The translated amino acid sequence for human G2019 full length N terminal flag tagged LRRK2 protein is SEQ ID No: 9.
Protein Expression & Purification a) Expression of Flag Tagged Full Length G2019 Human LRRK2
HEK293 6E cells were incubated in a 37° C. incubator with a humidified atmosphere of 5% CO2 on an orbital shaker rotating at 110 rpm. On the day of transduction, the cell viability was higher than 98% and the cell density was in the range of 1×10^6˜1.5×10^6 cells/ml. HEK293 6E cells were centrifuged at 1,000 rpm for 10 min, and then the cells were resuspended in fresh Freestyle 293 expression medium (Invitrogen: 12338) with 0.1% F-68(Invitrogen: 24040-032) but without antibiotics (G418) at density of 1×10^6 cells/ml. BacMam virus with Flag-hu LRRK2 (genotypically normal) gene was centrifuged at 40,000 g for 2 hours, then resuspended in fresh Freestyle 293 expression medium. The resuspended virus was added into the cells in at MOI of 10. The cells were incubated in a 37° C. incubator with a humidified atmosphere of 5% CO2 in air on an orbital shaker rotating at 110 rpm. Cultures were harvested at approximately 48 hours post-transduction by centrifugation at 4,000 rpm for 20 min and pellets were frozen for purification. […]
b) Purification of Flag Tagged Full Length G2019 Human LRRK2
The suspended cells were lysed by sonication on ice for 30 min (2 secs on/4 sec off, 20% amplitude), and centrifuged at 10,000 rpm for 30 minutes at 4° C. The supernatant was incubated with 1 mL per litre of cell culture of anti-Flag magnetic beads (Sigma-Aldrich: M8823) at 4° C. for 3 hours, then the beads were washed by 5 mL (5 column volume) binding buffer (50 mM Tris pH7.5@ 4 C, 500 mM NaCl, 0.5 mM EDTA, 0.1% TritonX-100, 10% glycerol, freshly add 2 mM DTT) for three times. The Flag tagged LRRK2 proteins were eluted by Elution buffer (50 mM Tris pH7.5@ 4 C, 500 mM NaCl, 0.5 mM EDTA, 0.1% TritonX-100, 10% glycerol, freshly add 2 mM DTT, 250 ug/ml Flag peptide (Sigma-Aldrich:F3290)) at 4° C. for 2 hours. Flag peptide was removed by Zeba Spin Desalting Columns, 7K MWCO (Thermo-Fisher: 89893) and the buffer of eluted LRRK2 proteins was exchanged into Storage Buffer (50 mM Tris pH7.5@4 C, 150 mM NaCl, 0.5 mM EDTA, 0.02% Triton X-100, 2 mM DTT and 50% Glycerol) using Amicon Ultra Centrifugal Filter Units (100 kD) (Merck: UFC910096). Fractions containing LRRK2 proteins were pooled, aliquoted and stored at −80° C. Protein concentration was determined by Bradford protein assay, and protein purity was analyzed by NuPAG Novex 4-12% Bis-Tris Protein Gels (Invitrogen: NP0322BOX).
Assay Protocol • 1) A 10 mM test compound was dissolved in 100% DMSO and serially diluted 1 in 4. 100 nL of this dilution series was then added to a 384 well, v bottom polypropylene plate, excluding columns 6 and 18. 100 nL of DMSO was added to columns 6 and 18 as controls wells. […]

T2 sequence (Q5S007 with tags, fused parts or gaps R50H): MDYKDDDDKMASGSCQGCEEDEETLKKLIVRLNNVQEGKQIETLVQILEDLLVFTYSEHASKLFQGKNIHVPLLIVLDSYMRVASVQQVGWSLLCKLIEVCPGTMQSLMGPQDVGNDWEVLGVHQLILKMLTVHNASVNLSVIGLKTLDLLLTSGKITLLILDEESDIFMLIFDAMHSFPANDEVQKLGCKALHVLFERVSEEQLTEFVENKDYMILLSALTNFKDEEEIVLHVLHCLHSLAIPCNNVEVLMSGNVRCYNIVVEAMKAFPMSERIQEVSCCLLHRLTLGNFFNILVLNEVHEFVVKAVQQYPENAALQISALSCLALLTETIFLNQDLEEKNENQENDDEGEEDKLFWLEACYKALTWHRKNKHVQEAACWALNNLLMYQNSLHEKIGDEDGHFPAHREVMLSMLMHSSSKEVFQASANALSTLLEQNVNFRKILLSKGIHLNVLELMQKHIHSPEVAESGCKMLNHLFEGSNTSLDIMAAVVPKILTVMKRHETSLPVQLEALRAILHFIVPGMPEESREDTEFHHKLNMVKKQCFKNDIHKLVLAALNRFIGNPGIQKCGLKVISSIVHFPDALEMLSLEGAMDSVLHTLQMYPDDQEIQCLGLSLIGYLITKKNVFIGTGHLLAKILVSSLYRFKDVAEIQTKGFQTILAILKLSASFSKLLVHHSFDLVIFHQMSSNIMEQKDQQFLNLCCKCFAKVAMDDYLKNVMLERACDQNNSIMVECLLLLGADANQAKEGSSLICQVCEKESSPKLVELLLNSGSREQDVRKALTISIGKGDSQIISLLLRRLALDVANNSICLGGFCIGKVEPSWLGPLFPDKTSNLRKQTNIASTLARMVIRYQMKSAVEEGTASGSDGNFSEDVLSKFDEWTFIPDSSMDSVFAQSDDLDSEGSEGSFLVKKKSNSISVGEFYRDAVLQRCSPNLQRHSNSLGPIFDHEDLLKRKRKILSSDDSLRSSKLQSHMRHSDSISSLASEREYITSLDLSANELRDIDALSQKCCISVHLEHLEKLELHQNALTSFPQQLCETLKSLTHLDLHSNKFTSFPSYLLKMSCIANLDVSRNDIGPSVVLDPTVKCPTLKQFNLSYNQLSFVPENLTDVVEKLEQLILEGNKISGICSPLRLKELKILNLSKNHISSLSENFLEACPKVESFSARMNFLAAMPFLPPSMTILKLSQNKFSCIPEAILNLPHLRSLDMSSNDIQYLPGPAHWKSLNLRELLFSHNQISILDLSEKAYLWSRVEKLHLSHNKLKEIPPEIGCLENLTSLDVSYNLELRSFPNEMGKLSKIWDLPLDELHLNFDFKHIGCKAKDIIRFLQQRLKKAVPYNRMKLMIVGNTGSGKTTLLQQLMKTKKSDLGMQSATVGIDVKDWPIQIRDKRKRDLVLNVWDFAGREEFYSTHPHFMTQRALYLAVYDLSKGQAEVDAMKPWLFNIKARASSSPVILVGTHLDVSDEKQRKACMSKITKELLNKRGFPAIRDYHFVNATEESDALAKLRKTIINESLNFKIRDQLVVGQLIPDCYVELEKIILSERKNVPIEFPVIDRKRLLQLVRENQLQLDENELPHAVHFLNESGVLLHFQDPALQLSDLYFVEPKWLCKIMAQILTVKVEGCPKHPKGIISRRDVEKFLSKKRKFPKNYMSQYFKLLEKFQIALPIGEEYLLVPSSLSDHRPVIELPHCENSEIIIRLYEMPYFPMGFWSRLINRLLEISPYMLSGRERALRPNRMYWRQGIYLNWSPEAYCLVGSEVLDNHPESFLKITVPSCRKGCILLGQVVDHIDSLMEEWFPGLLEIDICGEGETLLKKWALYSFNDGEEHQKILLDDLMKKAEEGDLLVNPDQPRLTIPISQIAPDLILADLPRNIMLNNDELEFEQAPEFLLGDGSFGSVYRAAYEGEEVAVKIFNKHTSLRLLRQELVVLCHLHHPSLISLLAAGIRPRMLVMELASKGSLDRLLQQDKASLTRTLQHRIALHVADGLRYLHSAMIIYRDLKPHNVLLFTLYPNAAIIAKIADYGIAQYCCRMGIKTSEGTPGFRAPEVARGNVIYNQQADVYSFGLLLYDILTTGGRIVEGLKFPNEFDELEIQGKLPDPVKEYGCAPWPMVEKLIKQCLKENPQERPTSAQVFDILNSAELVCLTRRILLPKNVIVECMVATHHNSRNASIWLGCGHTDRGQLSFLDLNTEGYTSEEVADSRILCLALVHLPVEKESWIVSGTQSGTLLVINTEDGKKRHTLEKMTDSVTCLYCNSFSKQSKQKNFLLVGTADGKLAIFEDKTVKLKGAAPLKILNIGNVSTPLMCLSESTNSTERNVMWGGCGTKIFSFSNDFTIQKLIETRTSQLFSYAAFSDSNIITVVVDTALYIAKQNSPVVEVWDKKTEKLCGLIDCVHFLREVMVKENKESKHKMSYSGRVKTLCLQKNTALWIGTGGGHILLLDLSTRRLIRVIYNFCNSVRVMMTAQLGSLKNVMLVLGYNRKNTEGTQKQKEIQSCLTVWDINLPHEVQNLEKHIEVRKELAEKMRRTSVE
T1 sequence (Q5S007 whole entry): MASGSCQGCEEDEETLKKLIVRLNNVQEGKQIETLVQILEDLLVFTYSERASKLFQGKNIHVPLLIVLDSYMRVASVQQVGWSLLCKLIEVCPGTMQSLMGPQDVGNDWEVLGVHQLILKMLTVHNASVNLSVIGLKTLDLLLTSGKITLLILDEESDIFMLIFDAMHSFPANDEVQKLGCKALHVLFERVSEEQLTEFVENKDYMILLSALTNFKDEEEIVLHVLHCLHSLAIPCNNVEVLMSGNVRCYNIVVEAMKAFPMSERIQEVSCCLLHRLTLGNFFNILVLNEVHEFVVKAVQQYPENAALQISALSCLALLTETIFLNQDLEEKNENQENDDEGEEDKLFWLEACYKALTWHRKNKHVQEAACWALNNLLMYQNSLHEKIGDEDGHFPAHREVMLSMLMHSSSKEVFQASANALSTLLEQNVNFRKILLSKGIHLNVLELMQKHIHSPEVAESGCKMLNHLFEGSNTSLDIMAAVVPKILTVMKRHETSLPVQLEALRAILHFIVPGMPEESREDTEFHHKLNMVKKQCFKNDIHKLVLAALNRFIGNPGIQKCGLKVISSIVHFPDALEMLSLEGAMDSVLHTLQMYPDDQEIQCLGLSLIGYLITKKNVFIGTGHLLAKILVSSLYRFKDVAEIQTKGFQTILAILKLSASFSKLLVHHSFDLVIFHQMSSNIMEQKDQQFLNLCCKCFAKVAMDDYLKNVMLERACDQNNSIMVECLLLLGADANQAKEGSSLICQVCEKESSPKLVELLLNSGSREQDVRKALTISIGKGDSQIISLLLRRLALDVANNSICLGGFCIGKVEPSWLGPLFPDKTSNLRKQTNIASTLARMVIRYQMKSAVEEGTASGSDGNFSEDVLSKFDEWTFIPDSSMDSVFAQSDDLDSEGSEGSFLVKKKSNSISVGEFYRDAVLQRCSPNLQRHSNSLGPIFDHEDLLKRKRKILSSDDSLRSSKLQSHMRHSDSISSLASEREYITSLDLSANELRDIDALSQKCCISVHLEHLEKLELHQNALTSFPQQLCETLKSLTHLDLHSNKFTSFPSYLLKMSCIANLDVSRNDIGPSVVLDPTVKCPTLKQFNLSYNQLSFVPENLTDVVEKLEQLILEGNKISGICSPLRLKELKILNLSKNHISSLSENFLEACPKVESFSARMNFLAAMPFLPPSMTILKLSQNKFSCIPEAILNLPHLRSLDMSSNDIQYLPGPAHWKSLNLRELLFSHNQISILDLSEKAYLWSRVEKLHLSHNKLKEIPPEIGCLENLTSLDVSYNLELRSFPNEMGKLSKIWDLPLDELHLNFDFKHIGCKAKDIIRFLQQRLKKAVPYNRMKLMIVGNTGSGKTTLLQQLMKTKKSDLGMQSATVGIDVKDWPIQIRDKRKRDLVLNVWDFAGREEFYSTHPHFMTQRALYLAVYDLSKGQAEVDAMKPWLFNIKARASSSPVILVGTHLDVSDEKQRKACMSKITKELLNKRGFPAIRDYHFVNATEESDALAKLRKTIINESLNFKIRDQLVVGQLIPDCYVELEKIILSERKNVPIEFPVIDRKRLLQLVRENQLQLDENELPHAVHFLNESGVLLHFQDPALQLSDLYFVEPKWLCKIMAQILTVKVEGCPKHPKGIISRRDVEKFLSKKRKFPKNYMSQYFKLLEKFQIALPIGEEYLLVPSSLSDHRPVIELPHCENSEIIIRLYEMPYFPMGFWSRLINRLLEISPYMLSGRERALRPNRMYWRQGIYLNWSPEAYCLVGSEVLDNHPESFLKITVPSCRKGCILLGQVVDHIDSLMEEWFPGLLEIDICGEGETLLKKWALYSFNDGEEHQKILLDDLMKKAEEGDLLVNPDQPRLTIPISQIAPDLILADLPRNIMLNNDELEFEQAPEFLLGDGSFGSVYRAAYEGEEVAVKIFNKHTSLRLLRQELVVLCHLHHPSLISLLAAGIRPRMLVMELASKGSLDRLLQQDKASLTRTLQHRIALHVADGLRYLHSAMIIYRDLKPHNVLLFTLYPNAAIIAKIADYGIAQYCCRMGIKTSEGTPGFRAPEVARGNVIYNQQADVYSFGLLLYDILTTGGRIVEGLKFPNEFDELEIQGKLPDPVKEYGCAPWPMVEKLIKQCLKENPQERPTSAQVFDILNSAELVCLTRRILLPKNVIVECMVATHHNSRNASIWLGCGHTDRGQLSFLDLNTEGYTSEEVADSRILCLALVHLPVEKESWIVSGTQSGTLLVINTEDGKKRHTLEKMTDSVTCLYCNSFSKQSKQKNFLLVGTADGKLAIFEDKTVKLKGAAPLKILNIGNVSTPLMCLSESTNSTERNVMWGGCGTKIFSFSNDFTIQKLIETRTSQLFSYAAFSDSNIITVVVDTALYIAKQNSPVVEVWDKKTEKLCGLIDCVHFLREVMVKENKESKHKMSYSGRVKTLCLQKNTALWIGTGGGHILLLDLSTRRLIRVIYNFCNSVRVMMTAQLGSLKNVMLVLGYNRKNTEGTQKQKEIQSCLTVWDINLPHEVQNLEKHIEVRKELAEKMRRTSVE

For `COc1nc(N2C[C@H]3C[C@@H]2CO3)cc(-n2ncc3cc(C)c(C4CCN(CCC(=O)O)CC4F)cc32)n1` (single isomer, unassigned) [Example E158], the IC50 was ≤ 10 nM in test [1] and ≤ 100 nM in test [2].

Turning to `COc1nc(N2C[C@H]3C[C@@H]2CO3)cc(-n2ncc3cc(C)c(C4C5CN([C@H]6CCOC6)CC54)cc32)n1` (stereo partly drawn) [Example E175, (1R,4R)-5-(2-methoxy-6-(5-methyl-6-(3-((S)-tetrahydrofuran-3-yl)-3-azabicyclo[3.1.0]hexan-6-yl)-1H-indazol-1-yl)pyrimidin-4-yl)-2-oxa-5-azabicyclo[2.2.1]heptane], the IC50 in test [1] is ≤ 1000 nM; in test [2], ≤ 100 nM.

As for `Cc1nc(N2C[C@]3(CO)C[C@H]2CO3)cc(-n2ncc3cc(C)c(C4CCN([C@H]5CCOC5)CC4)cc32)n1` [Example E143, ((1S,4S)-5-(2-methyl-6-(5-methyl-6-(1-((S)-tetrahydrofuran-3-yl)piperidin-4-yl)-1H-indazol-1-yl)pyrimidin-4-yl)-2-oxa-5-azabicyclo[2.2.1]heptan-1-yl)methanol], the IC50 in test [1] is ≤ 1000 nM; in test [2] it was ≤ 100 nM.

In the case of `Cc1nc(N2C[C@H]3C[C@@H]2CO3)cc(-n2ncc3cc(C)c(C4CCN(C5COCC5O)CC4)cc32)n1` (single isomer, unassigned) [Example E171], the IC50 in test [2] was ≤ 100 nM.

Consider `COc1nc(N2C[C@@]3(CO)C[C@@H]2CO3)cc(-n2ncc3cc(C)c(C4CCOCC4)cc32)n1` [Example E178, ((1R,4R)-5-(2-methoxy-6-(5-methyl-6-(tetrahydro-2H-pyran-4-yl)-1H-indazol-1-yl)pyrimidin-4-yl)-2-oxa-5-azabicyclo[2.2.1]heptan-1-yl)methanol], for which the IC50 in test [1] and in test [2] was ≤ 10 nM in each case.

`Cc1nc(N2C[C@@]3(CO)C[C@@H]2CO3)cc(-n2ncc3cc(C)c(C4CCN([C@H]5CCOC5)CC4)cc32)n1` [Example E142, ((1R,4R)-5-(2-methyl-6-(5-methyl-6-(1-((S)-tetrahydrofuran-3-yl)piperidin-4-yl)-1H-indazol-1-yl)pyrimidin-4-yl)-2-oxa-5-azabicyclo[2.2.1]heptan-1-yl)methanol]: the IC50 in test [2] was ≤ 100 nM.

Regarding `Cc1nc(N2CC3OCC2C3O)cc(-n2ncc3cc(C)c(C4CCN([C@H]5CCOC5)CC4)cc32)n1` (single isomer, unassigned) [Example E176, TFA Salt], the IC50 is ≤ 1000 nM in test [1] and ≤ 100 nM in test [2].

As for `Cc1nc(N2C[C@@H]3C[C@H]2CO3)cc(-n2ncc3cc(C)c(C4CCN(CCC(=O)O)CC4F)cc32)n1` (single isomer, unassigned) [Example E156], in test [2], the IC50 is ≤ 100 nM.

Turning to `Cc1nc(N2CC3(CO)CC2CO3)cc(-n2ncc3cc(C)c(C4CCN(C5CCOC5)CC4)cc32)n1` (single isomer, unassigned) [Example E152, (5-(2-methyl-6-(5-methyl-6-(1-(tetrahydrofuran-3-yl)piperidin-4-yl)-1H-indazol-1-yl)pyrimidin-4-yl)-2-oxa-5-azabicyclo[2.2.1]heptan-1-yl)methanol], the IC50 in test [2] is ≤ 100 nM.

Consider `COC(=O)CCN1CCC(c2cc3c(cnn3-c3cc(N4C[C@@H]5C[C@H]4CO5)nc(C)n3)cc2C)CC1` [Example E163, Methyl 3-(4-(1-(6-((1S,4S)-2-oxa-5-azabicyclo[2.2.1]heptan-5-yl)-2-methylpyrimidin-4-yl)-5-methyl-1H-indazol-6-yl)piperidin-1-yl)propanoate], for which the IC50 in test [2] was ≤ 100 nM.

Turning to `COc1nc(N2CC3(CO)CC2CO3)cc(-n2ncc3cc(C)c(C4CCN(C5COC5)CC4)cc32)n1` (stereo not shown) [Example E167, (5-(2-methoxy-6-(5-methyl-6-(1-(oxetan-3-yl)piperidin-4-yl)-1H-indazol-1-yl)pyrim-idin-4-yl)-2-oxa-5-azabicyclo[2.2.1]heptan-1-yl)methanol], the IC50 in test [1] and in test [2] was ≤ 10 nM in each case.

With `Cc1nc(N2C[C@@]3(CO)C[C@@H]2CO3)cc(-n2ncc3cc(C)c(C4CCOCC4)cc32)n1` [Example E173, ((1R,4R)-5-(2-methyl-6-(5-methyl-6-(tetrahydro-2H-pyran-4-yl)-1H-indazol-1-yl)pyrimidin-4-yl)-2-oxa-5-azabicyclo[2.2.1]heptan-1-yl)methanol], the IC50 in test [2] was ≤ 100 nM.

Take `Cc1nc(N2C[C@H]3C[C@@H]2CO3)cc(-n2ncc3cc(C)c(C4CCN(CCC(=O)O)CC4)cc32)n1` [Example E162, 3-(4-(1-(6-((1R,4R)-2-oxa-5-azabicyclo[2.2.1]heptan-5-yl)-2-methylpyrimidin-4-yl)-5-methyl-1H-indazol-6-yl)piperidin-1-yl)propanoic Acid]: the results for the IC50 in test [1] and in test [2] were ≤ 1000 nM and ≤ 100 nM, respectively.

As to `Cc1nc(N2C[C@H]3C[C@@H]2CO3)cc(-n2ncc3cc(C)c(C4CCN(CCC(=O)O)CC4F)cc32)n1` (single isomer, unassigned) [Example E154], in test [2], the IC50 was ≤ 100 nM.

In the case of `COc1nc(N2C[C@@H]3C[C@H]2CO3)cc(-n2ncc3cc(C)c(C4CCN(CCC(=O)O)CC4F)cc32)n1` (single isomer, unassigned) [Example E160], the values for the IC50 in test [1] and in test [2] were ≤ 10 nM and ≤ 100 nM, respectively.

As for `COc1nc(N2C[C@H]3C[C@@H]2CO3)cc(-n2ncc3cc(C)c(C4CCN(CCC(=O)O)CC4)cc32)n1` [Example E164, 3-(4-(1-(6-((1R,4R)-2-oxa-5-azabicyclo[2.2.1]heptan-5-yl)-2-methoxypyrimidin-4-yl)-5-methyl-1H-indazol-6-yl)piperidin-1-yl)propanoic Acid], the IC50 in test [1] is ≤ 1000 nM; in test [2], ≤ 100 nM.

In the case of `COc1nc(N2CC3CC2CO3)cc(-n2ncc3cc(C)c(C4CCN(C5COC5)CC4O)cc32)n1` (single isomer, unassigned) [Example E133], the IC50 in test [2] was ≤ 100 nM.

For `COc1nc(N2C[C@H]3C[C@@H]2CO3)cc(-n2ncc3cc(C)c(C4CCN(CCS(C)(=O)=O)CC4)cc32)n1` [Example E174, (1R,4R)-5-(2-methoxy-6-(5-methyl-6-(1-(2-(methylsulfonyl)ethyl)piperidin-4-yl)-1H-indazol-1-yl)pyrimidin-4-yl)-2-oxa-5-azabicyclo[2.2.1]heptane], the values for the IC50 in test [1] and in test [2] were ≤ 10 nM and ≤ 100 nM, respectively.
